Measured values from the supplement of paper PMC10307832.

Assays:
Experiment in all cases: relative viability (nuclei count vs DMSO), 5 days (fraction); higher = more cells survive
Etoposide + Decitabine = compound: COc1cc([C@@H]2c3cc4c(cc3[C@@H](O[C@@H]3O[C@@H]5CO[C@@H](C)O[C@H]5[C@H](O)[C@H]3O)[C@H]3COC(=O)[C@H]23)OCO4)cc(OC)c1O [Etoposide] + Nc1ncn([C@H]2C[C@H](O)[C@@H](CO)O2)c(=O)n1 [Decitabine] (partner 2 µM)
How it was run: (§1)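 Relative viability divides the nuclei count in treated wells by that in vehicle wells. Lung cancer cell lines were seeded in 1536-well plates, dosed by pin tool the next day, and fixed and stained after 5 days in one step with final 0.05% Triton X-100, 1% formaldehyde and 1 ug/ml Hoechst. Dosing was a single drug or a fixed anchor-drug dose plus five library-drug doses (not always all listed) in √10 steps, and values are medians of duplicate plates imaged at 4×.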

Bleomycin + AZD7762 = compound: CC1=C(N=C(N=C1N)[C@H](CC(=O)N)NC[C@@H](C(=O)N)N)C(=O)N[C@@H]([C@H](C2=CN=CN2)OC3C(C(C(C(O3)CO)O)O)OC4C(C(C(C(O4)CO)O)OC(=O)N)O)C(=O)N[C@H](C)[C@H]([C@H](C)C(=O)N[C@@H]([C@@H](C)O)C(=O)NCCC5=NC(=CS5)C6=NC(=CS6)C(=O)NCCC[S+](C)C)O [Bleomycin] + NC(=O)Nc1cc(-c2cccc(F)c2)sc1C(=O)N[C@H]1CCCNC1 [AZD7762] (partner 0.2 µM); conditions: main component drawn
How it was run: as §1

Bleomycin + Palbociclib = compound: CC1=C(N=C(N=C1N)[C@H](CC(=O)N)NC[C@@H](C(=O)N)N)C(=O)N[C@@H]([C@H](C2=CN=CN2)OC3C(C(C(C(O3)CO)O)O)OC4C(C(C(C(O4)CO)O)OC(=O)N)O)C(=O)N[C@H](C)[C@H]([C@H](C)C(=O)N[C@@H]([C@@H](C)O)C(=O)NCCC5=NC(=CS5)C6=NC(=CS6)C(=O)NCCC[S+](C)C)O [Bleomycin] + CC(=O)c1c(C)c2cnc(Nc3ccc(N4CCNCC4)cn3)nc2n(C2CCCC2)c1=O [Palbociclib] (partner 0.5 µM); conditions: main component drawn
How it was run: as §1

Etoposide + Crizotinib = compound: COc1cc([C@@H]2c3cc4c(cc3[C@@H](O[C@@H]3O[C@@H]5CO[C@@H](C)O[C@H]5[C@H](O)[C@H]3O)[C@H]3COC(=O)[C@H]23)OCO4)cc(OC)c1O [Etoposide] + C[C@@H](Oc1cc(-c2cnn(C3CCNCC3)c2)cnc1N)c1c(Cl)ccc(F)c1Cl [Crizotinib] (partner 1 µM)
How it was run: as §1

Cell Line	relative viability (Etoposide + Decitabine; first compound 0.01 µM)	relative viability (Etoposide + Decitabine; first compound 0.03162 µM)	relative viability (Etoposide + Decitabine; first compound 0.1 µM)	relative viability (Etoposide + Decitabine; first compound 0.3162 µM)	relative viability (Etoposide + Decitabine; first compound 1 µM)	relative viability (Bleomycin + AZD7762; first compound 0.01 µM)	relative viability (Bleomycin + AZD7762; first compound 0.03162 µM)	relative viability (Bleomycin + AZD7762; first compound 0.1 µM)	relative viability (Bleomycin + AZD7762; first compound 0.3162 µM)	relative viability (Bleomycin + AZD7762; first compound 1 µM)	relative viability (Bleomycin + Palbociclib; first compound 0.01 µM)	relative viability (Bleomycin + Palbociclib; first compound 0.03162 µM)	relative viability (Bleomycin + Palbociclib; first compound 0.1 µM)	relative viability (Bleomycin + Palbociclib; first compound 0.3162 µM)	relative viability (Bleomycin + Palbociclib; first compound 1 µM)	relative viability (Etoposide + Crizotinib; first compound 0.01 µM)	relative viability (Etoposide + Crizotinib; first compound 0.03162 µM)	relative viability (Etoposide + Crizotinib; first compound 0.1 µM)	relative viability (Etoposide + Crizotinib; first compound 0.3162 µM)	relative viability (Etoposide + Crizotinib; first compound 1 µM)
NCI-H522	0.702	0.655	0.502	0.872	0.571	0.76	0.796	0.65	0.519	0.468	0.904	0.829	0.76	0.386	0.4					
HCC-15	0.667	0.665	0.668	0.286	0.174	1.07	1.03	1.13	0.579	0.599	0.711	0.686	0.648	0.343	0.285	0.799	0.821	0.856	0.342	0.125
A-427	0.54	0.549	0.477	0.354	0.275	0.7	0.748	0.542	0.353	0.241	0.458	0.453	0.447	0.276	0.256	0.875	0.837	0.717	0.263	0.153
NCI-H23	0.333	0.317	0.291	0.235	0.242	0.259	0.241	0.159	0.121	0.119	0.311	0.251	0.25	0.15	0.152	0.365	0.471	0.402	0.297	0.169
NCI-H1734	0.517	0.513	0.454	0.379	0.314	0.485	0.449	0.325	0.21	0.151	0.29	0.245	0.27	0.207	0.172	0.647	0.643	0.541	0.497	0.271
NCI-H2087	0.287	0.3	0.276	0.214	0.102	0.981	1.2	1.31	0.976	0.512	0.222	0.236	0.221	0.118	0.147		1.02	0.856	0.571	0.277
PC-3 [JPC-3]	0.813	0.921	0.836	0.737	0.692	0.727	0.691	0.768	0.513	0.428	0.487	0.596	0.525	0.53	0.488	0.955	1.01	1.05	0.969	0.722
NCI-H1915	0.267	0.261	0.256	0.26	0.245	0.53	0.552	0.314	0.221	0.137	0.419	0.389	0.332	0.173	0.131	0.859	0.985	0.825	0.802	0.481
NCI-H1666	0.746	0.798	0.693	0.582	0.452	0.972	0.695	0.57	0.512	0.486	0.599	0.655	0.594	0.578	0.572	0.906	0.904	0.68	0.36	0.301
HCC-366	0.357	0.334	0.189	0.102	0.0877	0.305	0.231	0.156	0.065	0.0338	0.19	0.155	0.106	0.0548	0.0409	0.43	0.434	0.217	0.0627	0.0226
SK-MES-1	0.344	0.481	0.35	0.238	0.199						0.313	0.306	0.329	0.254	0.204	0.943	0.957	0.887	0.433	0.273
NCI-H727	1.11	0.985	0.681	0.796	0.63	0.683	0.574	0.451	0.33	0.463	0.346	0.721	0.654	0.526	0.636	0.771	0.683	0.867	0.766	0.585
Calu-6																0.751	0.862	0.964	0.575	0.362
CAL-12T						0.497	0.603	0.436	0.289	0.24	0.309	0.365	0.232	0.116	0.192	0.547	0.573	0.82	0.298	0.223
SK-LU-1	0.561	0.604	0.513	0.306	0.252						0.356	0.461	0.35	0.312	0.332	0.778	0.902	0.614	0.387	0.327
